Measurements published in patent publication US20210220370A1, “SELECTIVE HDAC8 INHIBITORS AND THEIR USES” (HOCHSCHULE DARMSTADT, priority 2015, published 2021).

Key:
HDAC5 = HDAC5 (Homo sapiens, UniProt Q9UQL6); assay: HDAC5 colorimetric assay, substrate Boc-Lys(TFA)-AMC
HDAC6 = target: T1, HDAC6 (Homo sapiens, UniProt Q9UBN7); assay: HDAC6 colorimetric assay, substrate Boc-Lys(Ac)-AMC; assay type: biochemical; details: Table 1; read-out: IC50 HDAC6
T1 sequence (Q9UBN7 1-1215): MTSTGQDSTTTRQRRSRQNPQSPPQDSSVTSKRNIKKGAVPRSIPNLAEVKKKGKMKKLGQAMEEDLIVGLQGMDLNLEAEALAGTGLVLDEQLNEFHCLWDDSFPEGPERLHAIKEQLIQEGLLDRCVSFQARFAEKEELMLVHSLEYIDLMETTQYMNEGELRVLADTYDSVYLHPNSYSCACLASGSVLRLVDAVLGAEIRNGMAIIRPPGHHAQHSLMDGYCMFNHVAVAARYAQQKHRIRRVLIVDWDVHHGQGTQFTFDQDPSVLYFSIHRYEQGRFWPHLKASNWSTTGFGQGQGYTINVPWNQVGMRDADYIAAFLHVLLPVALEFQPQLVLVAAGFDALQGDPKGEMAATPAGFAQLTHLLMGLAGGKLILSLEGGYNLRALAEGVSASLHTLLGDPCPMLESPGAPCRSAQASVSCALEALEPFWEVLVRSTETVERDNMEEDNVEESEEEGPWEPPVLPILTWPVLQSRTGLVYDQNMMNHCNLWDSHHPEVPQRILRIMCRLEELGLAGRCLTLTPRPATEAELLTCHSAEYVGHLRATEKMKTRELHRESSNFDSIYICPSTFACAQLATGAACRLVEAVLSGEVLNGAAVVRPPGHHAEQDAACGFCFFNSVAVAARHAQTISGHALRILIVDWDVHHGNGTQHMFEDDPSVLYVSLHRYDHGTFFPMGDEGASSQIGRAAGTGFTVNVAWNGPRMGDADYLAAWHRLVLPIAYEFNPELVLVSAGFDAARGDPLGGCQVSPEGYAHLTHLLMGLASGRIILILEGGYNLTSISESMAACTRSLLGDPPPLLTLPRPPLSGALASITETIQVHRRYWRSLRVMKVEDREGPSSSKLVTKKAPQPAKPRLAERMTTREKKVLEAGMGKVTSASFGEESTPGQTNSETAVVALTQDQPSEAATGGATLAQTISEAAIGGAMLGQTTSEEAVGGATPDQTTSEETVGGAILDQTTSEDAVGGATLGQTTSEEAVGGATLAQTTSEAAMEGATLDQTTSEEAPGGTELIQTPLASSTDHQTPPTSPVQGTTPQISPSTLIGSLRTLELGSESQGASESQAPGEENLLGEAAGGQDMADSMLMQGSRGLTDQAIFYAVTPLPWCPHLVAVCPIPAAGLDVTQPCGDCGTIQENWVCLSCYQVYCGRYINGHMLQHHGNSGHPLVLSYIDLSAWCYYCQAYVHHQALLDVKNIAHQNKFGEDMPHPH

HDAC4 = HDAC4 (Homo sapiens, UniProt P56524); assay type: biochemical; details: Table 1
HDAC4, sequence (P56524 whole entry): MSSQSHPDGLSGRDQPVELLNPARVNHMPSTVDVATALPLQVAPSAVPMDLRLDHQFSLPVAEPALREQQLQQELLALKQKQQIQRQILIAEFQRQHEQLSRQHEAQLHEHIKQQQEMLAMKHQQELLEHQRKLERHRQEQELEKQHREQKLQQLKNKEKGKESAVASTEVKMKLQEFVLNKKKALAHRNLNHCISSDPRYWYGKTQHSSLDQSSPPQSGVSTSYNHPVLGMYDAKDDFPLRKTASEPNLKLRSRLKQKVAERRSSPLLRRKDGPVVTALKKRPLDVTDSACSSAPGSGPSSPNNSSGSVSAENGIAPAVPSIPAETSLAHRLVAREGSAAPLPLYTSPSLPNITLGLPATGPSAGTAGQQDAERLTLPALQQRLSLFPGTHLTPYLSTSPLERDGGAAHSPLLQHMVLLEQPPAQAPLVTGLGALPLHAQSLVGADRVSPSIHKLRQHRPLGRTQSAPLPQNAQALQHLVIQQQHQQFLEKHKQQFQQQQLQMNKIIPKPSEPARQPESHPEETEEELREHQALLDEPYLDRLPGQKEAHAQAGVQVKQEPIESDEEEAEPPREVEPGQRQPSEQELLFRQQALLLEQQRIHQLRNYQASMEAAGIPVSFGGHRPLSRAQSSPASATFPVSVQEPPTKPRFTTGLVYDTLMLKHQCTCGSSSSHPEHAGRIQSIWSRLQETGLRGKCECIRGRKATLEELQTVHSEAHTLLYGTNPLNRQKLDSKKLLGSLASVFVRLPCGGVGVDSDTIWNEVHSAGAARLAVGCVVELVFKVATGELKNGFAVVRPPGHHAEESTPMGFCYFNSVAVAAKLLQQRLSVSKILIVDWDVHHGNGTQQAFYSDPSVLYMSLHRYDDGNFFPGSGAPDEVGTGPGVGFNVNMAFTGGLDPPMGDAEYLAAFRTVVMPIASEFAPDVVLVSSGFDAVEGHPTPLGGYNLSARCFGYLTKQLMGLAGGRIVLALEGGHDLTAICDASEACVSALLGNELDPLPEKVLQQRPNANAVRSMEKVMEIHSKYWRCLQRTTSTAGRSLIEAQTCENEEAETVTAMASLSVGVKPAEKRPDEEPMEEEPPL

HDAC8 = target: T2, HDAC8 (Homo sapiens, UniProt Q9BY41); assay: HDAC8 colorimetric assay, substrate Boc-Lys(TFA)-AMC; details: IC50 HDAC8, Table 1
T2 sequence (Q9BY41 1-377): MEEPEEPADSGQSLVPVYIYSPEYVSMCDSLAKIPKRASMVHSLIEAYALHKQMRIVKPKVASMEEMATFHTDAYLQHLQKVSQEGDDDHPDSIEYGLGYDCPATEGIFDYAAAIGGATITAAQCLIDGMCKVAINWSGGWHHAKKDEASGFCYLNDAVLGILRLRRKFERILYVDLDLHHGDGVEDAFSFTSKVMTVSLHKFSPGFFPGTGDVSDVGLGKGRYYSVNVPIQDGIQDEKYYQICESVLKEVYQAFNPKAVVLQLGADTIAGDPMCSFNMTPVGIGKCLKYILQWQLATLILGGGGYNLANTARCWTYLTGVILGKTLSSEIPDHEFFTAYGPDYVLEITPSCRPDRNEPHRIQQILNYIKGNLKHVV
Experimental: 1 nM of HDAC4 was incubated with increasing concentrations of the respective compound for 30 minutes at 30° C. The reaction was initiated by addition of 20 μM of the substrate Boc-Lys(trifluoracetyl)-AMC. After an incubation of 60 minutes the reaction was stopped by addition of 20 μM SAHA and the deacetylated substrate was converted into a fluorescent product by the addition of trypsin.

HDAC7 = target: T3, HDAC7 (Homo sapiens, UniProt Q8WUI4); assay: HDAC7 colorimetric assay, substrate Boc-Lys(TFA)-AMC; details: IC50 HDAC7, Table 1
T3 sequence (Q8WUI4 1-952): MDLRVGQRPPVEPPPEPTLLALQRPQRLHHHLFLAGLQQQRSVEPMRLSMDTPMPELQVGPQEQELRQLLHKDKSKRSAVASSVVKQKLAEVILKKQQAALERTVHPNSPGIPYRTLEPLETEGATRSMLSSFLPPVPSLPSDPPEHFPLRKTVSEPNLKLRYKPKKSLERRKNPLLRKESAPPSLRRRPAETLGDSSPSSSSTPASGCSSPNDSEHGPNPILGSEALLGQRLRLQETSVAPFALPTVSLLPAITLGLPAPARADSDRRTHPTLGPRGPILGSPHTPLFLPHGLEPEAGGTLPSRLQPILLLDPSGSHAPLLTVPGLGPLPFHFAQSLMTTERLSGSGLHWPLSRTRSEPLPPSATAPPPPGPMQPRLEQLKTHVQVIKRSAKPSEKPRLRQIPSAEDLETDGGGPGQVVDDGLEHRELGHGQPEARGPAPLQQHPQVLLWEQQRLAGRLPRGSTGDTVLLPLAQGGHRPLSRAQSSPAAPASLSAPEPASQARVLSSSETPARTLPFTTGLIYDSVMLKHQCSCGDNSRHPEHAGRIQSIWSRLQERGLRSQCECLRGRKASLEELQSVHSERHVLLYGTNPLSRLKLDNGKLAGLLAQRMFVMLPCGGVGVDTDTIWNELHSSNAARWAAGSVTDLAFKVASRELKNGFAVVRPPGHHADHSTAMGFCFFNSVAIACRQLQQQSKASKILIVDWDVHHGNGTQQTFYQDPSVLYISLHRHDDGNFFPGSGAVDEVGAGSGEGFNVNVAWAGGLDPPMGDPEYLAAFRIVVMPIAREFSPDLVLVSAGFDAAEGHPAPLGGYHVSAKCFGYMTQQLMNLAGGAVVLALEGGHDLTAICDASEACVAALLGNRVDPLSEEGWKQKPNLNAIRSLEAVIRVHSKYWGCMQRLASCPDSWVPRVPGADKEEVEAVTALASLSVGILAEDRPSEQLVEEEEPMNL

HDAC2 = HDAC2 (Homo sapiens, UniProt Q92769); assay: HDAC2 colorimetric assay, substrate Boc-Lys(Ac)-AMC; assay type: biochemical; details: Table 1
HDAC2, sequence (Q92769 whole entry): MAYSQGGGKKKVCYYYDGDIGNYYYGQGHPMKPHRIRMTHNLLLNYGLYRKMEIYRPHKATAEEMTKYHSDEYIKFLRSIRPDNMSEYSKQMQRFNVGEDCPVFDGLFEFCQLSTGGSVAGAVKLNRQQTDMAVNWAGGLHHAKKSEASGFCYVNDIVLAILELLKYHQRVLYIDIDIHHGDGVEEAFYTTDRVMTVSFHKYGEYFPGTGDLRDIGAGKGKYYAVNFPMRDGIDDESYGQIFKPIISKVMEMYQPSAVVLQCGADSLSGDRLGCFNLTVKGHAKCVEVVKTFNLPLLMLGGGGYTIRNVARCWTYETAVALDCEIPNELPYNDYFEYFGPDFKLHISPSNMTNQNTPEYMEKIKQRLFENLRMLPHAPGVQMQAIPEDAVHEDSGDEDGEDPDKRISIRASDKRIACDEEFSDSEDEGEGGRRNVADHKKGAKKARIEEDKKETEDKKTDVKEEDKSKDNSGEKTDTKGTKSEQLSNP

[1] = system: uterine leiomyosarcoma cell line SKUT-1; assay: Growth inhibition of cancer cell line, resazurin assay; assay type: cell-based, Human; details: Homo sapiens, SK-UT-1; Table 2, resazurin assay
HDAC3 = HDAC3 (Homo sapiens, UniProt O15379); assay: HDAC3 colorimetric assay, substrate Boc-Lys(Ac)-AMC; assay type: biochemical; details: Table 1
HDAC3, sequence (O15379 whole entry): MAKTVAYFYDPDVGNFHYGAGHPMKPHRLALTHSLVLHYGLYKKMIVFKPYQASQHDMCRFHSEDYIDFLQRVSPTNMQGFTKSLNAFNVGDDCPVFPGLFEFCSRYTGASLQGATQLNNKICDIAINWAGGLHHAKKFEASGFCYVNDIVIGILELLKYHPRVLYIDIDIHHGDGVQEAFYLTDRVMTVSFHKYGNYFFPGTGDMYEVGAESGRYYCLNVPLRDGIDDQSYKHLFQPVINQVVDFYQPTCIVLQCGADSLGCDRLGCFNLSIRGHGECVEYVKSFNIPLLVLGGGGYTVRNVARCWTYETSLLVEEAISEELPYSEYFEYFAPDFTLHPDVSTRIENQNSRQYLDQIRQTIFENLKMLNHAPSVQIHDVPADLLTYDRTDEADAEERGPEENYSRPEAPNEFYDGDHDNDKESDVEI
HDAC3, sequence (Q9Y618 395-489 partner limits assumed): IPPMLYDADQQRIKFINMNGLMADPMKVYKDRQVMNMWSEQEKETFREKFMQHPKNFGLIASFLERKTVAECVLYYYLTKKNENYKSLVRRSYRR

HDAC1 = HDAC1 (Homo sapiens, UniProt Q13547); assay: HDAC1 colorimetric assay, substrate Boc-Lys(Ac)-AMC; details: IC50 HDAC1, Table 1
HDAC1, sequence (Q13547 whole entry): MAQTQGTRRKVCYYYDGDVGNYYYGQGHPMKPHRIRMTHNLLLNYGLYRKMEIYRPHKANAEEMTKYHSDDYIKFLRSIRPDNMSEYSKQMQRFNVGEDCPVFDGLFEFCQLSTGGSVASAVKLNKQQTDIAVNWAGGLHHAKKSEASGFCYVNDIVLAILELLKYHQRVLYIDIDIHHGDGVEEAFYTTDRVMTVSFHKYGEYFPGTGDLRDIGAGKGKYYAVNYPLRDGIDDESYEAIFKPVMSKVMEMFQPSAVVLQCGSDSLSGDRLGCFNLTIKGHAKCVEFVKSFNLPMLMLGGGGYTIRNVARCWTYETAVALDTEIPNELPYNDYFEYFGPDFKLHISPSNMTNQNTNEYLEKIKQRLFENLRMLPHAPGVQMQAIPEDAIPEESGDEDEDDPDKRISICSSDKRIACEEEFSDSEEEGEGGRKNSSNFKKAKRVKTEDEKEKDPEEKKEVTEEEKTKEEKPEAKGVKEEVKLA
Experimental: 1 nM of HDAC1 was incubated with increasing concentrations of the respective compound for 30 minutes at 30° C. The reaction was initiated by addition of 50 μM of the substrate Boc-Lys(Ac)-AMC. After an incubation of 60 minutes the reaction was stopped by addition of 20 μM SAHA and the deacetylated substrate was converted into a fluorescent product by the addition of trypsin.

[2] = system: T cell leukemia cell line JURKAT; assay: Growth inhibition of cancer cell line, resazurin assay; details: Homo sapiens, Jurkat, read-out: GI50 JURKAT
[3] = system: breast cancer cell line MCF-7; assay: as above; assay type: cell-based, Human; details: Homo sapiens, MCF7; Table 2, resazurin assay

HDAC5, sequence (Q9UQL6 whole entry): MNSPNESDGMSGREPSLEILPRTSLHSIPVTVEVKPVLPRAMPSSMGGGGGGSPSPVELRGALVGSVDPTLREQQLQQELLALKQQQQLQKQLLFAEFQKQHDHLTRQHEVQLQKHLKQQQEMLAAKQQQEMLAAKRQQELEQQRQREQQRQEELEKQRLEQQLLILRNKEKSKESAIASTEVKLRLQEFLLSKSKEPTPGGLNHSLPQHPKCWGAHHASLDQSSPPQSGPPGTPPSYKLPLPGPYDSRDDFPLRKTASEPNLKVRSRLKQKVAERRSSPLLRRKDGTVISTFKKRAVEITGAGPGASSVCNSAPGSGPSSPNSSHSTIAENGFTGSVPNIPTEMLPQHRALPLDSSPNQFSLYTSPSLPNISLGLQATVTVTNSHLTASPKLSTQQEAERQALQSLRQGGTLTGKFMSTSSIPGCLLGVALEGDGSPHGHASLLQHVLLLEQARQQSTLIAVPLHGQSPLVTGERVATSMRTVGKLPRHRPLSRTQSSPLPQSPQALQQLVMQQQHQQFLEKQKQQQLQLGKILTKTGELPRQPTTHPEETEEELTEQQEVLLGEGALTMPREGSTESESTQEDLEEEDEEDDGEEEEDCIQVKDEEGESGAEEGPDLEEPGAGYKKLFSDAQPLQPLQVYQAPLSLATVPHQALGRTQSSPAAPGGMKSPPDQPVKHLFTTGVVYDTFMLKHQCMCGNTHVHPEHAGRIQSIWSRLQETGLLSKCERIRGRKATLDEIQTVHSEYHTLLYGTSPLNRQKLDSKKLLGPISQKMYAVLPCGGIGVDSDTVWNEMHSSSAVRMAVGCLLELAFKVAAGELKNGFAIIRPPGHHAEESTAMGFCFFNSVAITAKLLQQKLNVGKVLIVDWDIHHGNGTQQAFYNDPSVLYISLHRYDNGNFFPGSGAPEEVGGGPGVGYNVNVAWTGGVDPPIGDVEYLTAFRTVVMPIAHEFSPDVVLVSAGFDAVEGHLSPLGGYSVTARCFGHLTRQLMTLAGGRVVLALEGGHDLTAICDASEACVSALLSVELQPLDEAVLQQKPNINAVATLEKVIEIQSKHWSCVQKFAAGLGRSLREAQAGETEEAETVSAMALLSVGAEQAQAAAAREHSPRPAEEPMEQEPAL

Compound | IC50 (HDAC5) | IC50 (HDAC6) | IC50 (HDAC4) | IC50 (HDAC8) | IC50 (HDAC7) | IC50 (HDAC2) | GI50 [1] | IC50 (HDAC3) | IC50 (HDAC1) | GI50 [2] | GI50 [3]
N=C1Sc2c(F)cccc2C2=NCCN12 [Compound 13i, 7-Fluoro-2H-Benzo[e]Imidazo[1,2-c][1,3]Thiazin-5(3H)-Imine] | > 50 µM | > 50 µM | > 50 µM | 9.2 ± 0.3 µM | > 50 µM | > 50 µM | 109 ± 29 µM | > 50 µM | > 50 µM | 24 ± 3 µM | 16 ± 3 µM
N=C1Sc2cccc(Br)c2C2=NCCCN12 [Compound 13j, 11-Bromo-3,4-Dihydrobenzo[e]Pyrimido[1,2-c][1,3]Thiazin-6(2H)-Imine] | 0.038 ± 0.001 µM | 1.4 ± 0.2 µM | 2.3 ± 0.3 µM | 0.0063 ± 0.0004 µM | 2 ± 0.7 µM | 16 ± 2 µM | 16 ± 3 µM | 7 ± 0.5 µM | 2.6 ± 0.3 µM | 17 ± 3 µM | 11 ± 3 µM
Cc1ccc2c(c1)SC(=N)N1CCCN=C21 [Compound 13k, 9-Methyl-3,4-Dihydrobenzo[e]Pyrimido[1,2-c][1,3]Thiazin-6(2H)-Imine] | 0.24 ± 0.01 µM | 1.3 ± 0.3 µM | 7.6 ± 0.8 µM | 0.0054 ± 0.0004 µM | 2.5 ± 0.1 µM | > 50 µM | 45 ± 16 µM | 26 ± 4 µM | 5.8 ± 0.3 µM | 36 ± 4 µM | 44 ± 12 µM
N=C1Sc2ccc(F)cc2C2=NCCCN12 [Compound 13l, 10-Fluoro-3,4-Dihydrobenzo[e]Pyrimido[1,2-c][1,3]Thiazin-6(2H)-Imine] | 0.046 ± 0.003 µM | 0.65 ± 0.11 µM | 2.2 ± 0.3 µM | 0.006 ± 0.0006 µM | 1.5 ± 0.4 µM | 30 ± 2 µM | 24 ± 5 µM | 5.3 ± 0.4 µM | 2.1 ± 0.2 µM | 16 ± 2 µM | 79 ± 11 µM
Cc1cccc2c1C1=NCCCN1C(=N)S2 [Compound 13m, 11-Methyl-3,4-Dihydrobenzo[e]Pyrimido[1,2-c][1,3]Thiazin-6(2H)-Imine] | 0.038 ± 0.002 µM | 1.3 ± 0.3 µM | 3.2 ± 0.5 µM | 0.0043 ± 0.0005 µM | 1.3 ± 0.2 µM | > 50 µM | 35 ± 2 µM | 9.6 ± 0.7 µM | 3.7 ± 0.4 µM | 23 ± 2 µM | 179 ± 66 µM
